According to ChEMBL document CHEMBL2163249, “Exploration of natural compounds as sources of new bifunctional scaffolds targeting cholinesterases and beta amyloid aggregation: the case of chelerythrine” (Bioorg Med Chem, 2012):

Legend:
[1] = target: Acetylcholinesterase (Electrophorus electricus) (UniProt O42275); settings: at 2 mg/mL
Description: Inhibition of electric eel AChE at 2 mg/ml by Ellman's method

[2] = target: Cholinesterase (Equus caballus) (UniProt P81908); settings: at 2 mg/mL
Cholinesterase (Equus caballus), sequence (P81908 whole entry): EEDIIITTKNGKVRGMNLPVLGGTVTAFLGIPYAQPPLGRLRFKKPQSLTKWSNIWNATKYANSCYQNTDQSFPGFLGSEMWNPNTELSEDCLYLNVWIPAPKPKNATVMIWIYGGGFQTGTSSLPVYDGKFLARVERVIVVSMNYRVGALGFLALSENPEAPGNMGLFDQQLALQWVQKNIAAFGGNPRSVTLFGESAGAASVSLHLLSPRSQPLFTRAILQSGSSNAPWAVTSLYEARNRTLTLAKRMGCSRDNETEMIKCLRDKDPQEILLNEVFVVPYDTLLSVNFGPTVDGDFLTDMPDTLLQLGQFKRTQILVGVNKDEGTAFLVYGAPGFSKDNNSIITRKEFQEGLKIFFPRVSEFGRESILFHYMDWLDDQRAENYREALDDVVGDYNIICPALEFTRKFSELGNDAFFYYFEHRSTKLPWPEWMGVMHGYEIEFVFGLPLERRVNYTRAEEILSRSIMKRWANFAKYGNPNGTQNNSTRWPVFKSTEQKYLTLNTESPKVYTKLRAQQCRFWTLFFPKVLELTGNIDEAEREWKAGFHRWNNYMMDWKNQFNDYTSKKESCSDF
Description: Inhibition of horse BChE at 2 mg/ml by Ellman's method

Acetylcholinesterase (Electrophorus electricus), sequence (O42275 24-633 limits assumed): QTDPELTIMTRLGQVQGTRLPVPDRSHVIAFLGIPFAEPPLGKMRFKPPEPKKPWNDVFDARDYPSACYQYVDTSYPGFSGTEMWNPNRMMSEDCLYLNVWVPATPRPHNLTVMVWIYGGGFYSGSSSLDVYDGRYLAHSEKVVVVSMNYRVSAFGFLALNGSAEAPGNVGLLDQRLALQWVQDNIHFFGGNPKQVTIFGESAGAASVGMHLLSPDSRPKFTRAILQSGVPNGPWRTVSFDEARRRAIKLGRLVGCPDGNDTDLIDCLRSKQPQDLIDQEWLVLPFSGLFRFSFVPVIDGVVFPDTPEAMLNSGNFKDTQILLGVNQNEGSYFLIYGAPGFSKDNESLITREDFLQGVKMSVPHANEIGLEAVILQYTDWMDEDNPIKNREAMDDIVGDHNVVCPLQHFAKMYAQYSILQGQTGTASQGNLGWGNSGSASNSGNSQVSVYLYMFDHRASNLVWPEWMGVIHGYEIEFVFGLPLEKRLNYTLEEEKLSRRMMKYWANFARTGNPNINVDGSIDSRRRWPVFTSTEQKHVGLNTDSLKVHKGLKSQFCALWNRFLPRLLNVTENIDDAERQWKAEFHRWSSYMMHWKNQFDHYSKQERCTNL

| Compound | inhibition [1] [%] | inhibition [2] [%] |
| --- | --- | --- |
| CCCC(=O)O[C@@H]1[C@@H](C)[C@@]2(O)[C@@H](C=C(CO)C[C@]3(O)C(=O)C(C)=C[C@@H]23)[C@@H]2C(C)(C)[C@]12OC(=O)CCC (stereo in doubt; form 1) | 22.5 | 0.87 |
| C[C@@H]1CC[C@H]2[C@](C)(CO)[C@@H](O)CC[C@]2(C)[C@@]12CC[C@@](CO)(CCO)O2 | -4.53 | 6.75 |
| COc1c(O)cc(O)c2c(=O)cc(-c3ccccc3)oc12 | -1.48 | -5.86 |
| O=c1oc2cc(O)ccc2c2oc3cc(O)ccc3c12 | 3.18 | 9.06 |
| CN1CCC[C@H]1c1cccnc1 | 15.6 | 1.2 |
| COc1ccc(C[C@H]2c3cc(OC)c(OC)cc3CC[N+]2(C)C)cc1OC | 28.5 | 2.85 |
| COc1cc(-c2oc3cc(O)cc(O)c3c(=O)c2OC2O[C@H](CO)[C@@H](O)[C@H](O)[C@H]2O)cc(OC)c1O (stereo partly specified) | 3.25 | 2.12 |
| CC[C@@H](C)[C@@H](O)[C@H](C)C(=O)[C@H](C)/C=C(\C)C[C@H](C)[C@@H]1OC(=O)[C@H]1CC | 2.88 | 99.8 |
| O=c1cc(-c2ccc(O)c(OC3O[C@H](CO)[C@@H](O)[C@H](O)[C@H]3O)c2)oc2cc(OC3O[C@H](CO)[C@@H](O)[C@H](O)[C@H]3O)cc(O)c12 (stereo partly specified) | 28.6 | -2.06 |
| O=c1cc(-c2ccccc2)oc2cc(O)cc(O)c12 | 14.6 | 2.93 |
| CC1=CC(=O)C2=C(C)C[C@H](O)[C@@H]3[C@H](OC(=O)[C@H]3C)[C@@H]12 | 29.5 | 2.68 |
| O=c1c(O)c(-c2ccc(O)c(O)c2)oc2cc(O)cc(O)c12 | 18.1 | 6.73 |
| CCCC(=O)O[C@@H]1[C@@H](C)[C@@]2(O)[C@@H](C=C(CO)C[C@]3(O)C(=O)C(C)=C[C@@H]23)[C@@H]2C(C)(C)[C@]12OC(=O)CCC (stereo in doubt; form 2) | 19.5 | 5.87 |
| C[C@@]12CCc3occc3[C@H]1CC[C@@]13C[C@@H](CC[C@H]12)[C@@](O)(CO)C3 | -1.43 | 13.8 |
| COc1c2ccoc2cc2oc(C)cc(=O)c12 | 7 | 16.2 |
| COc1cc2c(c(OC)c1OC)-c1c(cc3c(c1OC)OCO3)C[C@H](C)[C@H](C)C2 | -4.27 | 12.7 |
| COc1cc2c(c(OC)c1OC)-c1c(cc3c(c1O)OCO3)C[C@H](C)[C@](C)(O)[C@H]2OC(=O)c1ccccc1 | 5.31 | -0.32 |
| OCC1=C[C@@H](O)[C@@H]2C=CO[C@@H](O[C@@H]3O[C@H](CO)[C@@H](O)[C@H](O)[C@H]3O)[C@H]12 | -1.28 | – |
| O=C(O)c1cc(N(Cc2ccccc2O)Cc2ccccc2O)ccc1O | 2.48 | 1.67 |
| CC[C@@]1(O)C(=O)OCc2c1cc1n(c2=O)Cc2cc3ccccc3nc2-1 | 14.1 | 3.9 |
| CC(=O)O[C@H]1C(=O)[C@@]2(C)[C@H]([C@H](OC(=O)c3ccccc3)[C@]3(O)C[C@H](OC(=O)[C@H](O)[C@@H](NC(=O)c4ccccc4)c4ccccc4)C(C)=C1C3(C)C)[C@]1(OC(C)=O)CO[C@@H]1C[C@@H]2O | 12.5 | -2.88 |
| C=C(C)[C@@H]1CC=C(C(=O)O)CC1 | -3.9 | 3.58 |
| CC[C@H]1[C@@H]2C[C@H]3[C@@H]4N(C)c5ccccc5[C@]45C[C@@H]([C@@H]2[C@H]5O)N3[C@@H]1O | 29.8 | 22.3 |
| O=C1C[C@@H](c2ccc(O)c(O)c2)Oc2cc(O)cc(O)c21 | 20.2 | -0.11 |

| Compound | inhibition [1] [%] | inhibition [2] [%] |
| --- | --- | --- |
| C[C@@H]1CC[C@]2(NC1)O[C@H]1C[C@H]3[C@@H]4CC=C5C[C@@H](O)CC[C@]5(C)[C@H]4CC[C@]3(C)[C@H]1[C@@H]2C | 1.63 | 53.7 |
| COc1ccc([C@@H]2OC[C@@H]3[C@H]2CO[C@H]3c2ccc(OC)c(OC)c2)cc1OC | – | 0.02 |
| C=C1O[C@@](CO)(n2cnc3c(N)ncnc32)[C@H](O)[C@@H]1O | – | -3.01 |
| c1cncc([C@@H]2CCCCN2)c1 | 0.25 | – |
| CC(=O)C1=C(O)[C@@H]2[C@H]3c4c[nH]c5cccc(c45)C[C@H]3C(C)(C)N2C1=O | – | 6.85 |
| O=C(O)/C=C/c1c[nH]c2ccccc12 | – | 4.54 |
| Clc1ccc(C2CC3CCC2N3)cn1 (racemic) | – | 5.32 |
| CC[C@@]1([C@@H]2O[C@@H]([C@H]3O[C@@](O)(CO)[C@H](C)C[C@@H]3C)C[C@@H]2C)CC[C@H]([C@]2(C)CC[C@]3(C[C@H](O)[C@@H](C)[C@@H]([C@@H](C)[C@@H](OC)[C@H](C)C(=O)O)O3)O2)O1 | – | 2.48 |
| C[C@@]12C=Cc3occc3[C@H]1CC[C@]13CC(=O)[C@H](CC[C@H]12)C3 | 8.34 | – |
| COc1ccc(Cc2nccc3cc(OC)c(OC)cc23)cc1OC | 35 | – |
| CC(C)=CCC[C@](C)(O)[C@H]1CC[C@]2(C)[C@@H]1CC[C@@H]1[C@@]3(C)CCC(=O)C(C)(C)[C@@H]3CC[C@]12C | – | -2.48 |
| O=C(O)CCCc1c[nH]c2ccccc12 | – | -5.54 |
| O[C@H]1[C@H](O)[C@@H](O)CN2CC[C@H](O)[C@H]12 | – | 0.79 |
| O=C1c2ccc(O)cc2O[C@@H](c2cc(O)c(O)c(O)c2)[C@@H]1O | 4.04 | – |
| CC1(C)O[C@H]2CC(=O)OC[C@]23[C@H]2CC[C@@]4(C)[C@H](c5ccoc5)OC(=O)[C@H]5O[C@]54[C@]2(C)C(=O)C[C@@H]13 | -0.85 | – |
| COc1ccc([C@@H]2CC(=O)c3c(O)cc(O[C@@H]4O[C@H](CO[C@@H]5O[C@@H](C)[C@H](O)[C@@H](O)[C@H]5O)[C@@H](O)[C@H](O)[C@H]4O)cc3O2)cc1O | -4.26 | – |
| CCCCCCCCCCCC1=C(O)C(=O)C=C(O)C1=O | – | 1.24 |
| OC[C@@H]1[C@@H](O)[C@H](O)[C@H]2[C@@H](O)CCN21 | – | 1.12 |
| C/C(=C/C=C/[C@@H](C)C(=O)O)[C@H]1CN[C@H](C(=O)O)[C@H]1CC(=O)O | – | 2.83 |
| COc1cccc2c1cc([N+](=O)[O-])c1c(C(=O)O)cc3c(c12)OCO3 | – | 22.7 |
| CC1=C(C(=O)O)N2C(=O)[C@@H](NC(=O)[C@H](N)C3=CCC=CC3)[C@H]2SC1 | -0.38 | – |
| CCCCCC[C@@H]1[C@@H](OC(=O)C(C)C)[C@H](C)O[C@@H](O)[C@@H](N[C@H](O)c2cccc(NC=O)c2O)[C@@H](C)O[C@H]1O | -2.88 | – |
| O=c1c2ccccc2nc2n1CCc1c-2[nH]c2ccccc12 | -4 | – |
| CC1=CC(=O)CC(C)(C)C1(O)/C=C/C(C)=C\C(=O)O (racemic) | – | -4.4 |

| Compound | inhibition [1] [%] | inhibition [2] [%] |
| --- | --- | --- |
| O=C(O[C@@H]1Cc2c(O)cc(O)cc2O[C@@H]1c1cc(O)c(O)c(O)c1)c1cc(O)c(O)c(O)c1 | – | -4.27 |
| CC[C@@H](C(=O)O)[C@@H]1O[C@@H]([C@@H](C)[C@H](O)[C@H](C)C(=O)[C@H](CC)[C@H]2O[C@]3(C=C[C@@H](O)[C@]4(CC[C@@](C)([C@H]5CC[C@](O)(CC)[C@H](C)O5)O4)O3)[C@H](C)C[C@@H]2C)[C@@H](C)C[C@@H]1C | -1.36 | – |
| Cc1cc2c(C(C)C)c(O)c(O)c(C=O)c2c(O)c1-c1c(C)cc2c(C(C)C)c(O)c(O)c(C=O)c2c1O | – | -2.11 |
| CC(=O)OCC1=C[C@H]2[C@@H]3C(C)(C)[C@]3(OC(=O)Cc3ccccc3)C[C@@H](C)[C@]2(O)[C@@H]2C=C(C)C(=O)[C@@]2(O)C1 | – | 6.06 |
| COc1ccc2c3c1O[C@H]1C[C@@H](O)C=C[C@@]31CCN(C)C2 | – | 37.8 |
| COc1ccc2c(c1O)-c1c(OC)c(OC)cc3c1[C@H](C2)N(C)CC3 | -6.07 | – |
| C=C[C@@]1(C)CC(=O)[C@]2(O)[C@@]3(C)[C@@H](O)CCC(C)(C)[C@@H]3[C@H](O)[C@H](OC(C)=O)[C@@]2(C)O1 | – | 1.35 |
| CS[C@H]1SC[C@H]2C(=O)N(C)[C@@H](C(C)C)C(=O)OC[C@@H](NC(=O)c3cnc4ccccc4n3)C(=O)N[C@@H](C)C(=O)N(C)[C@@H]1C(=O)N(C)[C@@H](C(C)C)C(=O)OC[C@@H](NC(=O)c1cnc3ccccc3n1)C(=O)N[C@@H](C)C(=O)N2C | – | -7.37 |
| CNc1ccc2oc(C[C@H]3O[C@@]4(CC[C@H]3C)O[C@H]([C@H](C)C(=O)c3ccc[nH]3)[C@H](C)C[C@H]4C)nc2c1C(=O)O | – | -3.34 |
| CO[C@H]1[C@H](OC(=O)c2ccc(C)[nH]2)[C@H](O)[C@@H](Oc2ccc3c(O)c(NC(=O)c4c[nH]c(C(=O)Nc5c(O)c6ccc(O[C@H]7OC(C)(C)[C@@H](OC)[C@H](OC(=O)c8ccc(C)[nH]8)[C@@H]7O)c(C)c6oc5=O)c4C)c(=O)oc3c2C)OC1(C)C | – | 3.14 |
| C[C@@H]1C(=O)O[C@H]2C[C@@]34[C@H]5C[C@@H](C(C)(C)C)[C@]36[C@@H](OC(=O)[C@@H]6O)O[C@@]4(C(=O)O5)[C@]21O | 6.97 | – |
| COC1=CC(=O)OC(/C=C/c2ccccc2)C1 (racemic) | – | -2.41 |
| c1ccc2c3c([nH]c2c1)CNCC3 | – | -5.97 |
| CC(C)(C)[C@]1(O)CC2OC(=O)CC23C(=O)OC2OC(=O)[C@H](O)C231 (stereo partly specified) | – | 10.9 |
| CC(=O)OC[C@@]1(O)C[C@@]23CC[C@@H]4c5ccoc5CC[C@@]4(C)[C@@H]2CC[C@@H]1C3 | -6.2 | – |
| CN1C(=O)[C@]23CC4=CC=C[C@H](O)[C@H]4N2C(=O)[C@@]1(CO)SS3 | – | 10.3 |
| Nc1ncnc2c1ccn2[C@@H]1O[C@H](CO)[C@@H](O)[C@H]1O | 4.48 | – |
| C=C1CC[C@@H]2O[C@]2(C)CC[C@@H]2[C@@H]1CC2(C)C | – | 1.64 |
| C[C@@H]1C[C@@H]([C@H](O)CC2CC(=O)NC(=O)C2)C(=O)[C@@H](C)C1 | – | -2.08 |
| CCCCCCCCCCCCCC/C(C(=O)O)=C(\C)C(=O)O | – | 9.23 |
| CC(=O)O[C@@]12C[C@@H](C)[C@@]3(O)[C@@H](C=C(CO)C[C@]4(O)C(=O)C(C)=C[C@@H]34)[C@@H]1C2(C)C | – | 3.93 |
| CC[C@@H](CO)NC(=O)[C@@H]1C=C2c3cccc4[nH]cc(c34)C[C@H]2N(C)C1 | 6.45 | – |
| CNC(=O)Oc1ccc2c(c1)[C@]1(C)CCN(C)[C@@H]1N2C | – | 88 |
| CC(C)=CCC/C(C)=C/CC/C(C)=C/CC/C(C)=C/CC/C(C)=C/CC/C(C)=C/CC/C(C)=C/CC/C(C)=C/CC/C(C)=C/CO | -1.74 | – |
